≈ marks a conversion by molar mass, not a printed value.
Tests used:
Influenza A virus = test: Antiviral activity against influenza A H1N1; format: functional, organism-based
LNCaP = test: Antiproliferative activity against human LNCaP cells assessed as reduction in cell viability; format: functional, cell-based
HT-29 = test: cells; details: Homo sapiens
Description: Antiproliferative activity against human HT-29 cells assessed as reduction in cell viability

HCT-116 = test: cells; details: Homo sapiens
Haemophilus influenzae = test: Antibacterial activity against Haemophilus influenzae assessed as reduction in bacterial growth by broth microdilution method; format: functional
Staphylococcus aureus = test: Antibacterial activity against Staphylococcus aureus assessed as reduction in bacterial growth by broth microdilution method; format: functional
Streptococcus pneumoniae = test: Antibacterial activity against Streptococcus pneumoniae assessed as reduction in bacterial growth by broth microdilution method; format: functional
K562 = test: Antiproliferative activity against human K562 cells assessed as reduction in cell viability measured after 48 hrs by MTT assay; format: functional, cell-based; details: K562, 48 h
[1] = Half life in mouse; format: ADME, organism-based; details: in vivo
Jurkat = test: Antiproliferative activity against human Jurkat cells assessed as reduction in cell viability measured after 48 hrs by MTT assay; format: functional, cell-based
HEL = test: Antiproliferative activity against human HEL cells assessed as reduction in cell viability measured after 48 hrs by MTT assay; format: functional, cell-based
[2] = target: T1, Amyloid-beta precursor protein (Homo sapiens, UniProt P05067); test: Inhibition of amyloid beta 42 in human HEK293 cells; format: cell-based
T1 sequence (P05067 whole entry): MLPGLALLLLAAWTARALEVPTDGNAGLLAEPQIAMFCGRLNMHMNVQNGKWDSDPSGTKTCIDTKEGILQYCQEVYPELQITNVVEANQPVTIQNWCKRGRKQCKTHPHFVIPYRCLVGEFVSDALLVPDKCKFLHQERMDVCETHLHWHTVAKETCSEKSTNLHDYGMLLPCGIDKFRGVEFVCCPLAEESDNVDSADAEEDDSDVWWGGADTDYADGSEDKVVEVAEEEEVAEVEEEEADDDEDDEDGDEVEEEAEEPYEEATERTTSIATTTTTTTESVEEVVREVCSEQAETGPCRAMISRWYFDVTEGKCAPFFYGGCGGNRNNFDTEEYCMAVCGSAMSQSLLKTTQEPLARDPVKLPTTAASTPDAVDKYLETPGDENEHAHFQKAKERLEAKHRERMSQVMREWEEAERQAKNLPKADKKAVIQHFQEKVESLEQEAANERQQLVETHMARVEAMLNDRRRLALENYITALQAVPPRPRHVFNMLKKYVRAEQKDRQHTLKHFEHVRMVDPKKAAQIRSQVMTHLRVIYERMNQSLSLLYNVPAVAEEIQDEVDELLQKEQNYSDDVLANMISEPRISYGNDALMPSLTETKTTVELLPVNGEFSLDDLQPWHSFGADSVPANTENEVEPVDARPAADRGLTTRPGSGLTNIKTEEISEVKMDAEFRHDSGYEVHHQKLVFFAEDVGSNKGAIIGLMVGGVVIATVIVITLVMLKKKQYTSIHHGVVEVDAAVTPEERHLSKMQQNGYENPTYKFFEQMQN

[3] = target: T1, Amyloid-beta precursor protein; test: Inhibition of amyloid beta (unknown origin) aggregation at 10 uM relative to control
[4] = Inhibition of LPS induced TNF-alpha secretion in human THP-1 cells pretreated with LPS for 1 hr followed by compound addition and measured after 3 hrs by ELISA method; format: functional, cell-based
[5] = target: Ribosomal protein S6 kinase alpha-5 (Homo sapiens, UniProt O75582); test: Inhibition of MSK-1 (unknown origin)
Sequence of Ribosomal protein S6 kinase alpha-5 (O75582 whole entry): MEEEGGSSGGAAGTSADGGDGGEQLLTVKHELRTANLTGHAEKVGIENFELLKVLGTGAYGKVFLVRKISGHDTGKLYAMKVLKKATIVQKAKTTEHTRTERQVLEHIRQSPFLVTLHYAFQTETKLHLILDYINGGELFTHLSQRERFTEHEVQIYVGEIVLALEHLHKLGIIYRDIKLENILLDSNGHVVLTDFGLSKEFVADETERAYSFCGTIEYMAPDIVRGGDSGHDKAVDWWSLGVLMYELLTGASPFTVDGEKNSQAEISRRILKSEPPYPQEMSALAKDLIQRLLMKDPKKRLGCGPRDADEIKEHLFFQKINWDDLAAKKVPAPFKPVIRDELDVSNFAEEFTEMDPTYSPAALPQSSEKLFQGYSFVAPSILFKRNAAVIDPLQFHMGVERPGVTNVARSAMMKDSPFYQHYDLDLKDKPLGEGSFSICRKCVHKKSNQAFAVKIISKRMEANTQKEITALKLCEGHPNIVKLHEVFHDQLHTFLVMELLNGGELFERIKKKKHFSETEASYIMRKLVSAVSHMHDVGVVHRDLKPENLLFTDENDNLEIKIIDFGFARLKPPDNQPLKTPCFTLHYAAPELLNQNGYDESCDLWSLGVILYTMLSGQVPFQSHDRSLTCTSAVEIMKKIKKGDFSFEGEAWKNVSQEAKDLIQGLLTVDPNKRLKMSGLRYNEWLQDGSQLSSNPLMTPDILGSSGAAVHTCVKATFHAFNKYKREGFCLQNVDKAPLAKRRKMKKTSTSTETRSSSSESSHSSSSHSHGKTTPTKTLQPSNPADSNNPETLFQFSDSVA

[6] = target: T1, Amyloid-beta precursor protein; test: Inhibition of amyloid beta (unknown origin) at 5 uM relative to control
[7] = target: Microtubule-associated protein tau (Homo sapiens) (UniProt P10636); test: Inhibition of tau (unknown origin) at 5 uM relative to control
Sequence of Microtubule-associated protein tau (Homo sapiens) (P10636 whole entry): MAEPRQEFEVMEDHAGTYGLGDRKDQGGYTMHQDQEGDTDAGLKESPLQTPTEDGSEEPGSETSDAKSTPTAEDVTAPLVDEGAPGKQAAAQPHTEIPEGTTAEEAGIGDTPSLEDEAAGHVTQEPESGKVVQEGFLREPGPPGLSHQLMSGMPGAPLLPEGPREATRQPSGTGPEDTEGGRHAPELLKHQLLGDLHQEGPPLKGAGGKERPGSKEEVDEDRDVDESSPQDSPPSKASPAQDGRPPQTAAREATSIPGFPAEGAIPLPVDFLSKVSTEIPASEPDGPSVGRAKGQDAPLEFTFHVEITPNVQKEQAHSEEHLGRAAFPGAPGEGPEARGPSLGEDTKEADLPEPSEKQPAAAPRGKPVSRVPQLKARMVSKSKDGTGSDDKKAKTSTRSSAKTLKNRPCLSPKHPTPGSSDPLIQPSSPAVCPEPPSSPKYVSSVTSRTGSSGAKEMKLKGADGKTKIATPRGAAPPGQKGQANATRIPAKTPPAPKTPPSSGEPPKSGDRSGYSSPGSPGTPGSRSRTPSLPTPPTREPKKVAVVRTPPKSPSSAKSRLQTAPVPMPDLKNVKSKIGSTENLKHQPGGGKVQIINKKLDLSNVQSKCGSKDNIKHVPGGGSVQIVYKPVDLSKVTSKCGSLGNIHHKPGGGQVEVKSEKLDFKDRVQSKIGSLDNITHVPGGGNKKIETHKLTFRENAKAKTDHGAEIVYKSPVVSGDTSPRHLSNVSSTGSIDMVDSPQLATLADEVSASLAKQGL

[8] = target: Ribosomal protein S6 kinase alpha-1 (Homo sapiens, UniProt Q15418); test: Inhibition of RSK1 (unknown origin)
Sequence of Ribosomal protein S6 kinase alpha-1 (Q15418 whole entry): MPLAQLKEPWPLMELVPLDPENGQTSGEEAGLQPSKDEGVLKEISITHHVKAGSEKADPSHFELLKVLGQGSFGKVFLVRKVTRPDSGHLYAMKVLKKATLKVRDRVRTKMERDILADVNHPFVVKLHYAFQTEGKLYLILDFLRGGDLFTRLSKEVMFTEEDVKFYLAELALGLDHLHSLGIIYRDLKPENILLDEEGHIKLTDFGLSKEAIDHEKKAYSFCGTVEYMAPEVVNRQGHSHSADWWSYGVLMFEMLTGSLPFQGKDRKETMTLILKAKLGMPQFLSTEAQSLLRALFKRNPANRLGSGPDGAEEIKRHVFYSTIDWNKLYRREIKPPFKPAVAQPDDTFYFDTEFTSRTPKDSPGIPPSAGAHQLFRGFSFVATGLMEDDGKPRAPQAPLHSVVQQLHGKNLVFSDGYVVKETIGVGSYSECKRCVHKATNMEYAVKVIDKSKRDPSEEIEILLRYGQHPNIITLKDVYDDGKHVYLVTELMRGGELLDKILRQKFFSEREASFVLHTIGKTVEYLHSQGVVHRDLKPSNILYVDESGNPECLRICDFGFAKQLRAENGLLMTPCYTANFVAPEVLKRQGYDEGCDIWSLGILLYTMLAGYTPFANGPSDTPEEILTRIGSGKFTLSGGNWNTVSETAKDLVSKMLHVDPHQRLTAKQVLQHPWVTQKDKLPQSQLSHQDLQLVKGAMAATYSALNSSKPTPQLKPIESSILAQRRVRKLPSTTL

Rattus norvegicus [9] = species on record: Rattus norvegicus; test: Anti-inflammatory activity against ovalbumin induced lung inflammatory rat model assessed as reduction in eosinophil influx; format: functional
Mus musculus = species on record: Mus musculus; test: Anti-inflammatory activity in LPS-induced inflammatory mouse model assessed as reduction in neutrophil influx; format: functional
[10] = Anti-inflammatory activity against human PBMCs assessed as reduction in LPS-induced TNF-alpha release by ELISA analysis; format: functional, cell-based; details: PBMC
[11] = test system: Respiratory syncytial virus; test: Antiviral activity against RSV; format: functional, organism-based; details: human respiratory syncytial virus
Plasmodium falciparum [12] = test: Antimalarial activity against Plasmodium falciparum assessed as parasitic reduction at 10 mg/kg of chloroquine relative to control; format: functional; design: scale not given: the % may be the effect or the level left
[13] = Half life in mouse at 10 mg/kg, po; format: ADME, organism-based; details: in vivo
[14] = Cmax in mouse at 100 mg/kg, po; format: ADME, organism-based; design: dose 100 mg/kg, route po; details: in vivo
[15] = Inhibition of human recombinant LDH
[16] = Cmax in mouse at 100 mg/kg, ip; format: ADME, organism-based; design: dose 100 mg/kg, route ip; details: in vivo
[17] = Binding affinity to Plasmodium falciparum LDH assessed as inhibitory constant
Plasmodium falciparum [18] = test: Antimalarial activity against Plasmodium falciparum assessed as parasitic reduction at 100 mg/kg relative to control; format: functional; design: scale not given: the % may be the effect or the level left
[19] = Half life in mouse at 10 mg/kg, ip; format: ADME, organism-based; details: in vivo
Lactate dehydrogenase = Lactate dehydrogenase (Plasmodium falciparum, UniProt Q0PJ46); test: Inhibition of recombinant Plasmodium falciparum LDH
Sequence of Lactate dehydrogenase (Q0PJ46 whole entry): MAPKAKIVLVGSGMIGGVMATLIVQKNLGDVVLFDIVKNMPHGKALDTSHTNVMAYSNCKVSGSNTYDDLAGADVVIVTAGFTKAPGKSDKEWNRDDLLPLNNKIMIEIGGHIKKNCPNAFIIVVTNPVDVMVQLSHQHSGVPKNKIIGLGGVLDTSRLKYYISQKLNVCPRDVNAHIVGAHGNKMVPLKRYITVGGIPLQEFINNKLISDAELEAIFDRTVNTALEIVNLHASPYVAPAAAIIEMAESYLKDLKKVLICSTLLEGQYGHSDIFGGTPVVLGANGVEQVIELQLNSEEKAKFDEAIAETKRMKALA

Plasmodium falciparum [20] = test: Antimalarial activity against drug sensitive Plasmodium falciparum 3D7; format: functional, organism-based
HL-60 = test: Antiproliferative activity against (unknown origin) HL-60 assessed as inhibition of cell proliferation by MTT assay; format: functional, cell-based; details: Homo sapiens
Daudi = test: Antiproliferative activity against human Daudi assessed as inhibition of cell proliferation by MTT assay; format: functional, cell-based
c-Myc/c-Max = c-Myc/c-Max (Homo sapiens, UniProt P01106+P61244); test: Inhibition of Myc/Max (unknown origin); format: protein assay
Sequence of c-Myc/c-Max (P01106 whole entry): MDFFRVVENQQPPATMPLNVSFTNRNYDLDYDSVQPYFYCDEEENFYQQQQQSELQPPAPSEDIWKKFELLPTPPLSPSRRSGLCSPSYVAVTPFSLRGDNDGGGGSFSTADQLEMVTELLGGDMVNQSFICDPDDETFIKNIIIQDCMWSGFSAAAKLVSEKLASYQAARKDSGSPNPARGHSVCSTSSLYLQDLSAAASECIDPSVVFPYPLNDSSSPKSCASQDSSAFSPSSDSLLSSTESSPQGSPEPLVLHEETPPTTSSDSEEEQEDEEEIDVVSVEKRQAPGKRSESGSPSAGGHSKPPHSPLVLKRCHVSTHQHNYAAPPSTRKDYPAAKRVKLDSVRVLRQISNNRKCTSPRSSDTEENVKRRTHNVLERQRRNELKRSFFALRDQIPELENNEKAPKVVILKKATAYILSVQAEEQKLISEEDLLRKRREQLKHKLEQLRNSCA
Sequence of c-Myc/c-Max (P61244 whole entry): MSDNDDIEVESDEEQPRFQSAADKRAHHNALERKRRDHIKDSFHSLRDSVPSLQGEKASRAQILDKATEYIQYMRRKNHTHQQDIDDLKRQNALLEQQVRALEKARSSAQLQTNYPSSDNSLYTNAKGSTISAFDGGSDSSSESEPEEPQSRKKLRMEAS

BaF3 = test: Antiproliferative activity against mouse BaF3 cells transfected with FLT3-ITD assessed as cell growth inhibition; format: functional, cell-based
Rattus norvegicus [21] = test: Antihypertensive activity in spontaneously hypertensive rat model assessed as change in blood pressure at 1 mg/kg, po measured after 10 hrs; format: functional
Rattus norvegicus [22] = test: Antihypertensive activity in spontaneously hypertensive rat model assessed as change in heart rate at 1 mmol/Kg, po measured after 10 hrs; format: functional
Rattus norvegicus [23] = test: Antihypertensive activity in spontaneously hypertensive rat model assessed as change in blood pressure at 1 mg/kg, po measured after 3 hrs; format: functional
Rattus norvegicus [24] = test: Antihypertensive activity in spontaneously hypertensive rat model assessed as change in heart rate at 1 umol/kg, po measured after 3 hrs; format: functional
Rattus norvegicus [25] = test: Antihypertensive activity in spontaneously hypertensive rat model assessed as change in heart rate at 10 mg/Kg, po measured after 6 hrs; format: functional
MDR1 = test: Efflux ratio of permeability in dog MDCK-MDR1 cells; format: ADME, cell-based, Canis lupus familiaris
[26] = target: Cyclin-dependent kinase inhibitor 1 (Homo sapiens, UniProt P38936); test: Inhibition of p21 (unknown origin)
Sequence of Cyclin-dependent kinase inhibitor 1 (P38936 whole entry): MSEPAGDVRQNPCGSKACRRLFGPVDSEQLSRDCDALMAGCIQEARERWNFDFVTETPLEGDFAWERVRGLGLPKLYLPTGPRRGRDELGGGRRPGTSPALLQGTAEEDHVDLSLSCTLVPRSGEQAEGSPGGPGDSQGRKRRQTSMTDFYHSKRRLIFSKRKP

[27] = Inhibition of HIF (unknown origin); design: species or system Homo sapiens
physchem = details: octanol/water
Description: Lipophilicity, log P of the compound

[28] = Binding affinity to human wild type HIF2alpha assessed as dissociation constant by calorimetry assay

O=C(NCCSc1ccc([N+](=O)[O-])c2nonc12)c1cccnc1
IC50 (Influenza A virus): 1000 nM

COc1ccc2c(c1)c(CC(=O)O)c(C)n2C(=O)c1ccc(Cl)cc1 [INDOMETHACIN]
EC50 (LNCaP): 238000 nM | EC50 (HT-29): 313000 nM | EC50 (HCT-116): 137000 nM

Oc1nc2nonc2nc1-c1ccc(Oc2ccccc2)cc1
MIC (Haemophilus influenzae): 26 µM (≈ 7.96 µg/mL) | MIC (Staphylococcus aureus): 13 µM (≈ 3.98 µg/mL) | MIC (Streptococcus pneumoniae): 0.21 µM (≈ 0.0643 µg/mL)

CC1(C)CC[C@]2(C(=O)O)CC[C@]3(C)C(=CC[C@@H]4[C@@]5(C)CC[C@H](O)C(C)(C)[C@@H]5CC[C@]43C)[C@@H]2C1 [OLEANOLIC_ACID]
EC50 (K562): > 100000 nM | half-life [1]: 0.7 h | EC50 (Jurkat): > 1000 nM | EC50 (HEL): > 1000 nM

CC(C)CC(C(=O)O)c1cc(Cl)c(OCC2CC2)c(-c2ccc3nonc3c2)c1 (stereo unspecified)
EC50 [2]: 270 nM

CC(O)c1cccc(-c2cc(NCc3ccccc3)c3nonc3c2)c1 (stereo unspecified)
inhibition [3]: 66.3%

COc1ccc(Cl)cc1Nc1ccc([N+](=O)[O-])c2nonc12
EC50 [4]: 3200 nM

CC(C)CC(C(=O)O)c1cc(Cl)c(OCC2CC2)c(-c2ccc(C(F)(F)F)cc2)c1 (stereo unspecified)
EC50 [2]: 70 nM

CCn1c(-c2cn(C)nc2N)nc2cnccc21
IC50 [5]: 1520 nM

CCn1c(-c2ccccn2)nc2cnccc21
IC50 [5]: > 10000 nM

CCn1c(-c2c[nH]nc2N)nc2cnccc21
IC50 [5]: 55 nM

OC1CN(c2cc(-c3cccc(C(O)C(F)(F)F)c3)cc3nonc23)C1 (stereo unspecified)
inhibition [6]: 53% | inhibition [7]: 87%

Cn1cnc(COc2ccc3c(c2)C(C)(O)O[C@]32CC[C@H](n3c(-c4nonc4N)nc4cc(F)ccc43)CC2)n1 (stereo partly specified)
IC50 [8]: 3 nM

O=C(Nc1c(Cl)cncc1Cl)c1ccc(OC(F)F)c(OCC2CC2)c1 [ROFLUMILAST]
ED50 (Rattus norvegicus [9]): 0.0018 µmol/kg | ED50 (Mus musculus): 0.031 µmol/kg | EC50 [10]: 50 nM

O=[N+]([O-])c1ccc(Nc2ccc(F)cc2)c2nonc12
IC50 [11]: 4000 nM

OC(c1cccc(-c2cc(N3CCC(N4CCCC4)CC3)c3nonc3c2)c1)C(F)(F)F (stereo unspecified)
inhibition [6]: 40% | inhibition [7]: 64%

O=[N+]([O-])c1ccc(Sc2ccc(F)cc2)c2nonc12
IC50 (Influenza A virus): 5000 nM | IC50 [11]: 7000 nM

O=C(O)c1conc1O
Activity (Plasmodium falciparum [12]): 100% | half-life [13]: 1.6 h | Cmax [14]: 153 µM | IC50 [15]: 54000 nM | Cmax [16]: 158 µM | Ki [17]: 470 nM | Activity (Plasmodium falciparum [18]): 30% | half-life [19]: 1.1 h | IC50 (Lactate dehydrogenase): 1100 nM | EC50 (Plasmodium falciparum [20]): 74400 nM | EC90 (Plasmodium falciparum [20]): > 200000 nM

O=[N+]([O-])c1ccc(Sc2ccc(-n3cc(CO)nn3)cc2)c2nonc12
IC50 (Influenza A virus): 1000 nM

O=C(O)c1ccc(-c2ccccc2Nc2ccc([N+](=O)[O-])c3nonc23)cc1
EC50 (HL-60): 148000 nM | EC50 (Daudi): 56000 nM | IC50 (c-Myc/c-Max): 33000 nM

O=C(O)c1nonc1NCn1nnnc1CCc1ccccc1
EC50 (BaF3): 2100 nM

CCn1c(-c2nonc2N)nc2cnc(Oc3cccc(NC(=O)c4ccc(OCCN5CCOCC5)cc4)c3)cc21 [GSK-269962A]
Activity (Rattus norvegicus [21]): 0 mmHg | Activity (Rattus norvegicus [22]): 0 bpm | Activity (Rattus norvegicus [23]): -20 mmHg | Activity (Rattus norvegicus [24]): 30 bpm | Activity (Rattus norvegicus [25]): 10 bpm

COc1cc2c(cc1OC)CN(Cc1ccc(-c3ccc(O)cc3)cc1)CC2
efflux ratio (MDR1): 0.69

O=[N+]([O-])c1ccc(Nc2cc(Cl)ccc2O)c2nonc12
EC50 [4]: 3500 nM

O=Cc1cccc(Cc2nnnn2CNc2nonc2C(=O)O)c1
EC50 (BaF3): 2600 nM

COc1ccc(C(=O)Nc2nc(NC(=O)c3ccccc3)nn2-c2ccccc2)cc1
IC50 [26]: 490 nM

COc1ccc([C@]2(C#N)CC[C@@H](C(=O)O)CC2)cc1OC1CCCC1 [CILOMILAST]
ED50 (Rattus norvegicus [9]): 0.017 µmol/kg | ED50 (Mus musculus): > 0.03 µmol/kg | EC50 [10]: 3.47 nM

O=[N+]([O-])c1c(Nc2cc(F)cc(Cl)c2)ccc2nonc12
IC50 [27]: 100 nM | logP (physchem): 3.99 | Kd [28]: 80 nM

CCCOc1cccc2c1CCCC2CCCN1CCc2cc(OC)c(OC)cc2C1 (stereo unspecified)
efflux ratio (MDR1): 0.35

From ChEMBL document CHEMBL5236544, “Furazans in Medicinal Chemistry” (J Med Chem, 2021)
